Experimental data taken from PubChem BioAssay (NCI).
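Exposure lasted 48 hours, with cells grown in 96-well plates and compounds tested at five concentrations. Abbreviation: GI50, concentration required for 50% inhibition of growth. TGI: concentration producing complete growth inhibition.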

Columns and labels:
Test in all cases: inhibition of tumour cell growth, NCI panel, 48 h
RXF 393 renal = test system: RXF 393 renal
SR leukemia = test system: SR leukemia
CCRF-CEM leukemia = test system: CCRF-CEM leukemia
SK-MEL-5 melanoma = test system: SK-MEL-5 melanoma
U251 CNS = test system: U251 CNS
HCT-116 colon = test system: HCT-116 colon
NCI-H23 lung = test system: NCI-H23 lung
NCI-H522 lung = test system: NCI-H522 lung
BT-549 breast = test system: BT-549 breast
LOX IMVI melanoma = test system: LOX IMVI melanoma
HL-60(TB) leukemia = test system: HL-60(TB) leukemia
MDA-MB-231 breast = test system: MDA-MB-231 breast
IGROV1 ovarian = test system: IGROV1 ovarian
KM12 colon = test system: KM12 colon
SK-OV-3 ovarian = test system: SK-OV-3 ovarian
OVCAR-8 ovarian = test system: OVCAR-8 ovarian
COLO 205 colon = test system: COLO 205 colon
OVCAR-4 ovarian = test system: OVCAR-4 ovarian
A498 renal = test system: A498 renal
TK-10 renal = test system: TK-10 renal
CAKI-1 renal = test system: CAKI-1 renal
SN12C renal = test system: SN12C renal
SF-539 CNS = test system: SF-539 CNS
OVCAR-5 ovarian = test system: OVCAR-5 ovarian
T-47D breast = test system: T-47D breast
HT29 colon = test system: HT29 colon
ACHN renal = test system: ACHN renal
UACC-257 melanoma = test system: UACC-257 melanoma
SK-MEL-2 melanoma = test system: SK-MEL-2 melanoma
UO-31 renal = test system: UO-31 renal
HOP-92 NSCLC = test system: HOP-92 NSCLC
SF-295 CNS = test system: SF-295 CNS
RPMI-8226 leukemia = test system: RPMI-8226 leukemia
DU-145 prostate = test system: DU-145 prostate
MCF7 breast = test system: MCF7 breast
MOLT-4 leukemia = test system: MOLT-4 leukemia
786-0 renal = test system: 786-0 renal
NCI/ADR-RES ovarian = test system: NCI/ADR-RES ovarian
SNB-75 CNS = test system: SNB-75 CNS
UACC-62 melanoma = test system: UACC-62 melanoma
EKVX NSCLC = test system: EKVX NSCLC
A549 NSCLC = test system: A549 NSCLC
PC-3 prostate = test system: PC-3 prostate
SF-268 CNS = test system: SF-268 CNS
OVCAR-3 ovarian = test system: OVCAR-3 ovarian
HOP-62 NSCLC = test system: HOP-62 NSCLC
HCT-15 colon = test system: HCT-15 colon
SW-620 colon = test system: SW-620 colon
M14 melanoma = test system: M14 melanoma
NCI-H226 lung = test system: NCI-H226 lung
HCC-2998 colon = test system: HCC-2998 colon
NCI-H460 lung = test system: NCI-H460 lung
K-562 leukemia = test system: K-562 leukemia
HS 578T breast = test system: HS 578T breast
SK-MEL-28 melanoma = test system: SK-MEL-28 melanoma
MALME-3M melanoma = test system: MALME-3M melanoma
MDA-MB-435 = test system: MDA-MB-435
SNB-19 CNS = test system: SNB-19 CNS

## O=C(C[n+]1ccccc1)N=N/C(C(=O)Nc1c(Cl)c(O)c2ccccc2c1O)=C1/C(=O)Oc2cc(O)ccc2C1=O
RXF 393 renal
  TGI: 21.7 µM
SR leukemia
  TGI: 53.6 µM
CCRF-CEM leukemia
  TGI: > 100 µM
SK-MEL-5 melanoma
  TGI: 2.26 µM
U251 CNS
  TGI: 45.9 µM
HCT-116 colon
  TGI: 12.1 µM
NCI-H23 lung
  TGI: 17.3 µM
NCI-H522 lung
  TGI: 7.3 µM
BT-549 breast
  TGI: 18.3 µM
LOX IMVI melanoma
  TGI: > 100 µM
HL-60(TB) leukemia
  TGI: > 100 µM
MDA-MB-231 breast
  TGI: 61.4 µM
IGROV1 ovarian
  TGI: 14.7 µM
KM12 colon
  TGI: > 100 µM
SK-OV-3 ovarian
  TGI: 27.9 µM
OVCAR-8 ovarian
  TGI: 35.3 µM
COLO 205 colon
  TGI: 10.4 µM
OVCAR-4 ovarian
  TGI: 8.84 µM
A498 renal
  TGI: 57.5 µM
TK-10 renal
  TGI: > 100 µM
CAKI-1 renal
  TGI: 18.1 µM
SN12C renal
  TGI: 15.1 µM
SF-539 CNS
  TGI: 16 µM
OVCAR-5 ovarian
  TGI: 25.5 µM
T-47D breast
  TGI: 32.1 µM
HT29 colon
  TGI: 15.3 µM
ACHN renal
  TGI: 19.2 µM
UACC-257 melanoma
  TGI: 12.1 µM
SK-MEL-2 melanoma
  TGI: 8.1 µM
UO-31 renal
  TGI: 26.3 µM
HOP-92 NSCLC
  TGI: 48.8 µM
SF-295 CNS
  TGI: 11.8 µM
RPMI-8226 leukemia
  TGI: 54.6 µM
DU-145 prostate
  TGI: 12.4 µM
MCF7 breast
  TGI: 15.5 µM
MOLT-4 leukemia
  TGI: > 100 µM
786-0 renal
  TGI: > 100 µM
NCI/ADR-RES ovarian
  TGI: 85.1 µM
SNB-75 CNS
  TGI: 39.4 µM
UACC-62 melanoma
  TGI: 4.14 µM
EKVX NSCLC
  TGI: 29.3 µM
A549 NSCLC
  TGI: 11 µM
PC-3 prostate
  TGI: 33 µM
SF-268 CNS
  TGI: > 100 µM
OVCAR-3 ovarian
  TGI: 13.2 µM
HOP-62 NSCLC
  TGI: 22.4 µM
HCT-15 colon
  TGI: 7.09 µM
SW-620 colon
  TGI: 20.6 µM
M14 melanoma
  TGI: 14.7 µM
NCI-H226 lung
  TGI: 25.8 µM
HCC-2998 colon
  TGI: 12.8 µM
NCI-H460 lung
  TGI: 8.36 µM
K-562 leukemia
  TGI: > 100 µM

## C=CCN1C=CC(=O)[C@H](O[Si](C)(C)C(C)(C)C)[C@@H]1/C=C/c1ccccc1
RXF 393 renal
  GI50: 19 µM
  TGI: 46.1 µM
SR leukemia
  GI50: 5.21 µM
  TGI: 26.1 µM
CCRF-CEM leukemia
  GI50: 15.2 µM
  TGI: 40.1 µM
SK-MEL-5 melanoma
  GI50: 7.33 µM
  TGI: 20 µM
U251 CNS
  GI50: 12.4 µM
  TGI: 25.2 µM
HCT-116 colon
  GI50: 6.96 µM
  TGI: 19.9 µM
NCI-H23 lung
  GI50: 13.8 µM
  TGI: 27.9 µM
NCI-H522 lung
  GI50: 13 µM
  TGI: 28.3 µM
BT-549 breast
  GI50: 16 µM
  TGI: 35 µM
LOX IMVI melanoma
  GI50: 13.1 µM
  TGI: 26.4 µM
HL-60(TB) leukemia
  GI50: 3.36 µM
  TGI: 20.2 µM
MDA-MB-231 breast
  GI50: 14.6 µM
  TGI: 29.8 µM
IGROV1 ovarian
  GI50: 17.1 µM
  TGI: 34 µM
KM12 colon
  GI50: 13.1 µM
  TGI: 28.7 µM
SK-OV-3 ovarian
  GI50: 14.9 µM
  TGI: 28.6 µM
OVCAR-8 ovarian
  GI50: 30.6 µM
  TGI: > 100 µM
COLO 205 colon
  GI50: 4.39 µM
  TGI: 16.2 µM
OVCAR-4 ovarian
  GI50: 11.6 µM
  TGI: 24.7 µM
A498 renal
  GI50: 13.2 µM
  TGI: 26.1 µM
TK-10 renal
  GI50: 14 µM
  TGI: 28.5 µM
CAKI-1 renal
  GI50: 15.7 µM
  TGI: 32.7 µM
SN12C renal
  GI50: 13.8 µM
  TGI: 27.3 µM
SF-539 CNS
  GI50: 16 µM
  TGI: 30.1 µM
OVCAR-5 ovarian
  GI50: 17.5 µM
  TGI: 31.9 µM
T-47D breast
  GI50: 4.04 µM
  TGI: 17 µM
HT29 colon
  GI50: 5.39 µM
  TGI: 19 µM
ACHN renal
  GI50: 15.5 µM
  TGI: 29.2 µM
UACC-257 melanoma
  GI50: 17.9 µM
  TGI: 37.2 µM
SK-MEL-2 melanoma
  GI50: 17 µM
  TGI: 34.2 µM
UO-31 renal
  GI50: 9.19 µM
  TGI: 25.1 µM
HS 578T breast
  GI50: 14.1 µM
  TGI: 34.3 µM
HOP-92 NSCLC
  GI50: 7.05 µM
  TGI: 21.1 µM
SF-295 CNS
  GI50: 9.9 µM
  TGI: 24.9 µM
RPMI-8226 leukemia
  GI50: 13.6 µM
  TGI: 45.2 µM
DU-145 prostate
  GI50: 15.7 µM
  TGI: 30.1 µM
MCF7 breast
  GI50: 8.77 µM
  TGI: 21.9 µM
MOLT-4 leukemia
  GI50: 10.7 µM
  TGI: 28.8 µM
786-0 renal
  GI50: 15.4 µM
  TGI: 29.4 µM
NCI/ADR-RES ovarian
  GI50: 13.3 µM
  TGI: 26.8 µM
SK-MEL-28 melanoma
  GI50: 15 µM
  TGI: 28.6 µM
SNB-75 CNS
  GI50: 10.5 µM
  TGI: 22.7 µM
MALME-3M melanoma
  GI50: 17.3 µM
  TGI: 34.3 µM
UACC-62 melanoma
  GI50: 12.1 µM
  TGI: 26.7 µM
EKVX NSCLC
  GI50: 14 µM
  TGI: 40.7 µM
A549 NSCLC
  GI50: 16.8 µM
  TGI: 50.3 µM
SF-268 CNS
  GI50: 15.1 µM
  TGI: 30.9 µM
OVCAR-3 ovarian
  GI50: 14 µM
  TGI: 27.8 µM
HOP-62 NSCLC
  GI50: 15.1 µM
  TGI: 28.9 µM
HCT-15 colon
  GI50: 12.5 µM
  TGI: 25.6 µM
SW-620 colon
  GI50: 14.5 µM
  TGI: 29.3 µM
MDA-MB-435
  GI50: 12.3 µM
  TGI: 30.6 µM
M14 melanoma
  GI50: 13.2 µM
  TGI: 27.5 µM
SNB-19 CNS
  GI50: 20.7 µM
  TGI: 35.3 µM
NCI-H226 lung
  GI50: 17.9 µM
  TGI: 36.9 µM
HCC-2998 colon
  GI50: 16.2 µM
  TGI: 30.3 µM
NCI-H460 lung
  GI50: 8.38 µM
  TGI: 23.8 µM
K-562 leukemia
  GI50: 9.56 µM
  TGI: 31.3 µM
